Results reported in ChEMBL document CHEMBL4706699, “Novel (R)-6,6a,7,8,9,10-hexahydro-5H-pyrazino[1,2-a][1,n]naphthyridines as potent and selective agonists of the 5-HT receptor” (Bioorg Med Chem Lett, 2021).

Assays:
[1] = molecular target: T1, 5-hydroxytryptamine receptor 2B (Homo sapiens, UniProt P41595); assay: Agonist activity at 5-HT2BR (unknown origin) transfected in human HEK293 cells by IP3 accumulation assay; assay type: cell-based
[2] = molecular target: T2, 5-hydroxytryptamine receptor 2C (Homo sapiens) (UniProt P28335); assay: Agonist activity at 5-HT2CR (unknown origin) transfected in human HEK293 cells at 10 uM by IP3 accumulation assay relative to control; assay type: functional, cell-based; settings: filed as agonist
T2 sequence (whole entry): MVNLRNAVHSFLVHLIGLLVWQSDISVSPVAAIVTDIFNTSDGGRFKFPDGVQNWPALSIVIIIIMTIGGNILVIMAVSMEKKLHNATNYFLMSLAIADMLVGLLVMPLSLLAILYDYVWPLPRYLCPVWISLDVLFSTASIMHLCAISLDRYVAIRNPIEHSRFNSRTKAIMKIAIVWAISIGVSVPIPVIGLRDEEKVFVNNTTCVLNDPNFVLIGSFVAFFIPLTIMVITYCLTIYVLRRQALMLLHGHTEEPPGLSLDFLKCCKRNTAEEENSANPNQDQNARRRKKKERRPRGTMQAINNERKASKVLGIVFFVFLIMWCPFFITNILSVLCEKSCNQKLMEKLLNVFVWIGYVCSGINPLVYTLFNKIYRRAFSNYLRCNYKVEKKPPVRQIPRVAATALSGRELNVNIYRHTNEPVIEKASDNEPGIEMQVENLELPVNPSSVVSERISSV

[3] = molecular target: T3, 5-hydroxytryptamine receptor 2C (Homo sapiens, UniProt P28335); assay: Agonist activity at 5-HT2CR (unknown origin) transfected in human HEK293 cells by IP3 accumulation assay; assay type: functional, cell-based
T3 sequence (P28335 whole entry): T2 sequence (whole entry)

[4] = molecular target: T3, 5-hydroxytryptamine receptor 2C; assay: Displacement of [125I]-DOI from recombinant human 5HT2CR transfected in human HEK293 cells incubated for 45 mins by radioligand binding assay; assay type: cell-based
[5] = molecular target: T1, 5-hydroxytryptamine receptor 2B; assay: Displacement of [3H]-[…] from recombinant human 5HT2BR transfected in human HEK293 cells incubated for 45 mins by radioligand binding assay; assay type: cell-based
5-HT2B receptor = 5-HT2B receptor (Homo sapiens, UniProt P41595); assay: Agonist activity at 5-HT2BR (unknown origin) transfected in human HEK293 cells at 10 uM by IP3 accumulation assay relative to control; assay type: cell-based; settings: HEK293 cells transfected with 5-HT2BR
5-HT2B receptor, sequence (P41595 whole entry): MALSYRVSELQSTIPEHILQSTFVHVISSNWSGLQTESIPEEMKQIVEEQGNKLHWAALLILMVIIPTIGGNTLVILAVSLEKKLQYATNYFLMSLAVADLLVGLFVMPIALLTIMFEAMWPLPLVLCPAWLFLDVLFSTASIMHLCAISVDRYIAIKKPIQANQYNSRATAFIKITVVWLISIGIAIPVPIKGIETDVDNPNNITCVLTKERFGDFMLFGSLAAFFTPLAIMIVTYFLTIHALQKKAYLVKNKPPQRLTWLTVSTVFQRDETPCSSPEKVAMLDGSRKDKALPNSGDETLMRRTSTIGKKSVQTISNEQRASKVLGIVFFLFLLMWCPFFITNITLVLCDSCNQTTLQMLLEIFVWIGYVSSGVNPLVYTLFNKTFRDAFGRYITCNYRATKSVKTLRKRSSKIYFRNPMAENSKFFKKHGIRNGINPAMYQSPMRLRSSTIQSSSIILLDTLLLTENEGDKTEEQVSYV

[6] = Metabolic stability in rat liver microsomes assessed as parent compound remaining at 1 uM incubated for 45 mins; assay type: ADME, Microsome; settings: read-out: Stabilty
[7] = Metabolic stability in human liver microsomes assessed as parent compound remaining at 1 uM incubated for 45 mins; assay type: ADME, Microsome; settings: read-out: Stabilty
[8] = molecular target: T4, 5-hydroxytryptamine receptor 2A (Homo sapiens, UniProt P28223); assay: Agonist activity at 5-HT2AR (unknown origin) transfected in human HEK293 cells by IP3 accumulation assay; assay type: cell-based
T4 sequence (P28223 whole entry): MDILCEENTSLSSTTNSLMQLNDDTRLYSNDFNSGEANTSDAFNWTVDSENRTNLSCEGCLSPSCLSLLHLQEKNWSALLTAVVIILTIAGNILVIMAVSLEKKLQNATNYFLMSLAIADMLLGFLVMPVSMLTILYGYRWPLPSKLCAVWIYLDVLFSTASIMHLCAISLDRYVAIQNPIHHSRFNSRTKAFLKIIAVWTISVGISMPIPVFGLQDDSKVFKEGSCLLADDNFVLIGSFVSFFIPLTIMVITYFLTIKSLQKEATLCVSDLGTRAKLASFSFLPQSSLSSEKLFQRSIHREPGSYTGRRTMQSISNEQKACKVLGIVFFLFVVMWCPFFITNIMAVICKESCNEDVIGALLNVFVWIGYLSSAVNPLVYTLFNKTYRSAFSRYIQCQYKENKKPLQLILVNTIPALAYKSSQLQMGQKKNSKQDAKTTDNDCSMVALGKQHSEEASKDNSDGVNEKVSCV

5-HT2A receptor = 5-HT2A receptor (Homo sapiens, UniProt P28223); assay: Agonist activity at 5-HT2AR (unknown origin) transfected in human HEK293 cells at 10 uM by IP3 accumulation assay relative to control; assay type: cell-based; settings: HEK293 cells transfected with 5-HT2AR
5-HT2A receptor, sequence (P28223 whole entry): as above

[9] = Oral bioavailability in Sprague-Dawley rat; assay type: ADME, organism-based; settings: in vivo
[10] = Half life in po dosed Sprague-Dawley rat; assay type: ADME, organism-based; settings: in vivo
[11] = Ratio of unbound drug level in po dosed Sprague-Dawley rat brain to plasma measured after 2 hrs; assay type: ADME, organism-based; settings: read-out: K(p,uu,brain)
[12] = (§1) In vivo agonist activity at 5HT2CR in po dosed Sprague-Dawley rat assessed as reduction in food intake measured at 1 hr; assay type: functional
Rattus norvegicus = assay: as §1; assay type: functional
[13] = molecular target: T4, 5-hydroxytryptamine receptor 2A; assay: Displacement of [3H]-DOI from recombinant human 5HT2AR transfected in human HEK293 cells incubated for 45 mins by radioligand binding assay; assay type: cell-based

T1 sequence (P41595 whole entry): as the sequence (P41595 whole entry) above

Compound	EC50 [1]	Emax [2]	EC50 [3]	Ki [4]	Ki [5]	Emax at 10 µM (5-HT2B receptor)	remaining at 0.75 h, 1 µM [6]	remaining at 0.75 h, 1 µM [7]	EC50 [8]	Emax at 10 µM (5-HT2A receptor)	bioavailability [9]	half-life [10]	Kp uu at 2 h [11]	ED50 [12]	Activity (Rattus norvegicus)	Ki [13]
c1ccc(Cc2cncc3c2CC[C@@H]2CNCCN32)cc1	> 10000 nM	110%	0.631 nM	0.501 nM	251 nM											
c1cc(CC2CCC2)c2c(n1)N1CCNC[C@H]1CC2		108%				17%	67%	78%								
c1cc2c(c(CC3CCC3)n1)CC[C@@H]1CNCCN21	> 10000 nM		> 1000 nM						> 10000 nM							
FC(F)(F)CCc1ccnc2c1CC[C@@H]1CNCCN21		97%				31%	80%	100%		134%	54%	2.9 h	1.3	0.7 mg/kg	Dose-dependent effect	
COCc1ccnc2c1CC[C@@H]1CNCCN21		109%				38%										
c1cnc2c(c1)CC[C@@H]1CNCCN21	63.1 nM	92%	100 nM			19%			> 10000 nM							
FC(F)(F)CCc1cccc2c1CC[C@@H]1CNCCN21	3160 nM	95%	3.16 nM	2 nM	100 nM	48%	23%	81%	1000 nM	114%						20 nM
Cc1ccnc2c1CC[C@@H]1CNCCN21		102%				52%										
CCCc1cncc2c1CC[C@@H]1CNCCN21		106%					14%	5%								39.8 nM
CCCc1ccnc2c1CC[C@@H]1CNCCN21		99%	0.0631 nM	0.158 nM		54%	27%	29%								6.31 nM
CCCc1cccc2c1CC[C@@H]1CNCCN21	100 nM	107%	0.2 nM	0.316 nM	12.6 nM	82%	38%	13%	158 nM	74%						5.01 nM
c1cc2c(cn1)N1CCNC[C@H]1CC2	794 nM	98%	316 nM			28%			> 10000 nM							
c1cc(C2CC2)c2c(n1)N1CCNC[C@H]1CC2	15.8 nM	99%	6.31 nM			34%			398 nM	117%						
Clc1ccnc2c1CC[C@@H]1CNCCN21	50.1 nM	99%	5.01 nM			62%			1260 nM	90%						
c1ccc(Cc2ccnc3c2CC[C@@H]2CNCCN32)cc1		107%	0.126 nM	0.251 nM		25%			50.1 nM	114%						1.26 nM
CC(C)Cc1ccnc2c1CC[C@@H]1CNCCN21	316 nM	102%	0.398 nM	0.631 nM	31.6 nM	22%	24%	14%								
c1cc2c(cn1)CC[C@@H]1CNCCN21	> 10000 nM		> 10000 nM						> 10000 nM							
